Assay results reported in US20100298141A1, “SUBSTITUTED PYRIDINE N-OXIDE HERBICIDES” (E. I. DU PONT DE NEMOURS AND COMPANY, priority 2007, published 2010).

Columns and labels:
[1] = test system: barnyardgrass; assay: Test C flooded paddy test; type: in vivo, Echinochloa crus-galli; settings: Flood
Method in brief: (§1)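 Ratings were visual and made relative to untreated controls after 13 to 15 greenhouse days.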

[2] = test system: duck salad; assay: Test C flooded paddy test; type: in vivo, Heteranthera limosa; settings: Flood
Method in brief: as §1

[3] = test system: barnyardgrass; assay: Test A pre-/postemergence greenhouse test; type: in vivo, Echinochloa crus-galli; settings: for Plant response rating, Barnyardgrass: 0 to 100 scale where 0 is no effect and 100 is complete control; for Barnyardgrass plant response rating: 0 to 100 scale
Method in brief: (§2)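 Visual injury ratings against untreated controls, taken roughly ten days after treatment in greenhouse. Plants were sprayed postemergence at one- to two-leaf stage (2–10 cm tall); at the same time, seeded loam/sand soil received a directed preemergence spray. Formulation: non-phytotoxic solvent mixture with surfactant.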

[4] = test system: velvetleaf; assay: Test A pre-/postemergence greenhouse test; type: in vivo, Abutilon theophrasti; settings: for Plant response rating, Velvetleaf: 0 to 100 scale where 0 is no effect and 100 is complete control; for Velvetleaf plant response rating: 0 to 100 scale
Method in brief: as §2

[5] = test system: crabgrass; assay: Test A pre-/postemergence greenhouse test; type: in vivo, Digitaria sanguinalis; settings: for Plant response rating, Crabgrass, Large: 0 to 100 scale where 0 is no effect and 100 is complete control; for Crabgrass, Large plant response rating: 0 to 100 scale
Method in brief: as §2

[6] = test system: giant foxtail; assay: Test A pre-/postemergence greenhouse test; type: in vivo, Setaria faberi; settings: for Plant response rating, Foxtail, Giant: 0 to 100 scale where 0 is no effect and 100 is complete control; for Foxtail, Giant plant response rating: 0 to 100 scale
Method in brief: as §2

[7] = test system: rice; assay: Test C flooded paddy test; type: in vivo, Oryza sativa; settings: Flood
Method in brief: as §1

[8] = test system: wheat; assay: Test A pre-/postemergence greenhouse test; type: in vivo, Triticum aestivum; settings: for Plant response rating, Wheat: 0 to 100 scale where 0 is no effect and 100 is complete control; for Wheat plant response rating: 0 to 100 scale
Method in brief: as §2

[9] = test system: redroot pigweed; assay: Test A pre-/postemergence greenhouse test; type: in vivo, Amaranthus retroflexus; settings: for Plant response rating, Pigweed: 0 to 100 scale where 0 is no effect and 100 is complete control; for Pigweed plant response rating: 0 to 100 scale
Method in brief: as §2

[10] = test system: corn; assay: Test A pre-/postemergence greenhouse test; type: in vivo, Zea mays; settings: for Plant response rating, Corn: 0 to 100 scale where 0 is no effect and 100 is complete control; for Corn plant response rating: 0 to 100 scale
Method in brief: as §2

[11] = test system: morningglory; assay: Test A pre-/postemergence greenhouse test; type: in vivo, Ipomoea spp.; settings: for Plant response rating, Morningglory: 0 to 100 scale where 0 is no effect and 100 is complete control; for Morningglory plant response rating: 0 to 100 scale
Method in brief: as §2

[12] = test system: umbrella sedge; assay: Test C flooded paddy test; type: in vivo, Cyperus difformis; settings: Flood
Method in brief: as §1

[13] = 62 g ai/ha, scale 0 to 100 (0 no effect, 100 complete control)
[14] = 250 g ai/ha, scale 0 to 100, 0 no effect, 100 complete control, 13 to 15 days
[15] = Postemergence, 500 g ai/ha, 0 is no effect, 100 is complete control
[16] = Preemergence, 125 g ai/ha, 0 no effect, 100 complete control
[17] = Preemergence, 500 g ai/ha, 0 no effect, 100 complete control

SMILES | Plant response rating, Barnyardgrass [1, 13] | Plant response rating, Barnyardgrass [1, 14] | Plant response rating, Ducksalad [2, 13] | Plant response rating, Ducksalad [2, 14] | Plant response rating, Barnyardgrass ([3]; Postemergence, 125 g ai/ha) | Barnyardgrass plant response rating [3, 15] | Barnyardgrass plant response rating [3, 16] | Plant response rating, Barnyardgrass ([3]; Preemergence, 500 g ai/ha) | Plant response rating, Velvetleaf ([4]; Postemergence, 125 g ai/ha) | Velvetleaf plant response rating [4, 15] | Velvetleaf plant response rating [4, 16] | Velvetleaf plant response rating [4, 17] | Plant response rating, Crabgrass, Large ([5]; Postemergence, 125 g ai/ha) | Crabgrass, Large plant response rating [5, 15] | Crabgrass, Large plant response rating [5, 16] | Plant response rating, Crabgrass, Large ([5]; Preemergence, 500 g ai/ha) | Plant response rating, Foxtail, Giant ([6]; Postemergence, 125 g ai/ha) | Foxtail, Giant plant response rating [6, 15] | Foxtail, Giant plant response rating [6, 16] | Plant response rating, Foxtail, Giant ([6]; Preemergence, 500 g ai/ha) | further results
Cn1nc(C(F)(F)F)c(C[S+]([O-])c2ccc(Cl)c[n+]2[O-])c1OCC(F)(F)C(F)(F)F (stereo not drawn) [Compound 89] | 0 | 90 | 40 | 100 | 70 | 90 | 40 | 100 | 30 | 80 | 10 | 100 | 50 | 90 | 90 | 90 | 80 | 90 | 80 | 100 | Plant response rating, Rice [7, 13]: 0; Plant response rating, Rice [7, 14]: 60; Plant response rating, Wheat ([8]; Postemergence, 125 g ai/ha): 60; Wheat plant response rating [8, 15]: 70; Wheat plant response rating [8, 16]: 30; Wheat plant response rating [8, 17]: 90; Plant response rating, Pigweed ([9]; Postemergence, 125 g ai/ha): 50; Pigweed plant response rating [9, 15]: 100; Pigweed plant response rating [9, 16]: 80; Plant response rating, Pigweed ([9]; Preemergence, 500 g ai/ha): 100; Plant response rating, Corn ([10]; Postemergence, 125 g ai/ha): 50; Corn plant response rating [10, 15]: 80; Corn plant response rating [10, 16]: 30; Plant response rating, Corn ([10]; Preemergence, 500 g ai/ha): 90; Plant response rating, Morningglory ([11]; Postemergence, 125 g ai/ha): 40; Morningglory plant response rating [11, 15]: 90; Plant response rating, Morningglory ([11]; Preemergence, 500 g ai/ha): 90; Plant response rating, Sedge, Umbrella [12, 13]: 0; Plant response rating, Sedge, Umbrella [12, 14]: 100
Cc1cc[n+]([O-])c([S+]([O-])Cc2c(C(F)(F)F)nn(C)c2OCC(F)(F)C(F)(F)F)c1 (stereo not drawn) [Compound 90] | 0 | 0 | 0 | 20 | 0 | 60 | 0 | 100 | 0 | 80 | 0 | 70 | 20 | 80 | 40 | 90 | 50 | 80 | 70 | 100 | Plant response rating, Rice [7, 13]: 0; Plant response rating, Rice [7, 14]: 0; Plant response rating, Wheat ([8]; Postemergence, 125 g ai/ha): 0; Wheat plant response rating [8, 15]: 70; Wheat plant response rating [8, 16]: 0; Wheat plant response rating [8, 17]: 80; Plant response rating, Pigweed ([9]; Postemergence, 125 g ai/ha): 10; Pigweed plant response rating [9, 15]: 30; Pigweed plant response rating [9, 16]: 0; Plant response rating, Pigweed ([9]; Preemergence, 500 g ai/ha): 40; Plant response rating, Corn ([10]; Postemergence, 125 g ai/ha): 30; Corn plant response rating [10, 15]: 50; Corn plant response rating [10, 16]: 0; Plant response rating, Corn ([10]; Preemergence, 500 g ai/ha): 50; Plant response rating, Morningglory ([11]; Postemergence, 125 g ai/ha): 20; Morningglory plant response rating [11, 15]: 90; Morningglory plant response rating [11, 16]: 0; Plant response rating, Morningglory ([11]; Preemergence, 500 g ai/ha): 60; Plant response rating, Sedge, Umbrella [12, 13]: 0; Plant response rating, Sedge, Umbrella [12, 14]: 70
Cc1cc[n+]([O-])c([S+]([O-])Cc2c(C(F)(F)C(F)(F)F)nn(C)c2OCC(F)(F)F)c1 (stereo not drawn) [Compound 91] | 0 | 70 | 45 | 100 | 70 | 90 | 20 | 100 | 30 | 80 | 0 | 100 | 50 | 80 | 20 | 100 | 80 | 90 | 90 | 100 | Plant response rating, Rice [7, 13]: 0; Plant response rating, Rice [7, 14]: 70; Plant response rating, Wheat ([8]; Postemergence, 125 g ai/ha): 60; Wheat plant response rating [8, 15]: 80; Wheat plant response rating [8, 16]: 40; Wheat plant response rating [8, 17]: 100; Plant response rating, Pigweed ([9]; Postemergence, 125 g ai/ha): 50; Pigweed plant response rating [9, 15]: 60; Pigweed plant response rating [9, 16]: 90; Plant response rating, Pigweed ([9]; Preemergence, 500 g ai/ha): 100; Plant response rating, Corn ([10]; Postemergence, 125 g ai/ha): 20; Corn plant response rating [10, 15]: 80; Corn plant response rating [10, 16]: 10; Plant response rating, Corn ([10]; Preemergence, 500 g ai/ha): 90; Plant response rating, Morningglory ([11]; Postemergence, 125 g ai/ha): 20; Morningglory plant response rating [11, 15]: 100; Morningglory plant response rating [11, 16]: 40; Plant response rating, Morningglory ([11]; Preemergence, 500 g ai/ha): 100; Plant response rating, Sedge, Umbrella [12, 13]: 75; Plant response rating, Sedge, Umbrella [12, 14]: 100
Cn1nc(C(F)(F)F)c(CS(=O)(=O)c2ccc(Cl)c[n+]2[O-])c1OCC(F)F [Compound 93] | 0 | 20 | 0 | 50 | 70 | 80 | 60 | 90 | 0 | 50 | 0 | 40 | 50 | 80 | 60 | 90 | 60 | 80 | 60 | 90 | Plant response rating, Rice [7, 13]: 0; Plant response rating, Rice [7, 14]: 30; Plant response rating, Wheat ([8]; Postemergence, 125 g ai/ha): 20; Wheat plant response rating [8, 15]: 40; Wheat plant response rating [8, 16]: 30; Wheat plant response rating [8, 17]: 30; Plant response rating, Pigweed ([9]; Postemergence, 125 g ai/ha): 60; Pigweed plant response rating [9, 15]: 70; Pigweed plant response rating [9, 16]: 70; Plant response rating, Pigweed ([9]; Preemergence, 500 g ai/ha): 100; Plant response rating, Corn ([10]; Postemergence, 125 g ai/ha): 30; Corn plant response rating [10, 15]: 30; Corn plant response rating [10, 16]: 0; Plant response rating, Corn ([10]; Preemergence, 500 g ai/ha): 0; Plant response rating, Morningglory ([11]; Postemergence, 125 g ai/ha): 30; Morningglory plant response rating [11, 15]: 40; Morningglory plant response rating [11, 16]: 0; Plant response rating, Morningglory ([11]; Preemergence, 500 g ai/ha): 0; Plant response rating, Sedge, Umbrella [12, 13]: 0; Plant response rating, Sedge, Umbrella [12, 14]: 40
